Experiments:
[1] = tested on: CAL51 cells; assay: Cell proliferation (Cell Titer Glow), CAL51; assay type: cell-based; conditions: Homo sapiens, CAL-51; IG compounds, cell killing, 72 h
Description: Exemplary isoindolinone-glutarimide (IG) compounds of Table 1a, 1b and 1c were prepared and characterized according to the Examples herein. Certain exemplary IG compounds of(Table 1a were tested for their effects in inhibiting cellular proliferation, including CAL1 WSU-DLCL2, NCI-N87 and SKBR3. CAL51 is a human breast adenocarcinoma cell line with triple-negative status for expression of estrogen, progesterone and HER2 receptors. WSU-DLCL2 is a human B-Cell non-Hodgkin lymphoma cell line that expresses high levels of CD22. NCI-N87 is a human epithelial cell line established from a gastric carcinoma; SKBR3 is a human epithelial cell line established from a breast adenocarcinoma; both NCI-N87 and SKBR3 cell lines express high levels of HER2 receptor. […]
One day prior to treatment with compounds or IGAC, cells were plated in white 96-well plates (SKBR: 3000 cells/well; CAL-51: 4000 cells/well). Compounds or ADCs were added in a serial-dilution manner reaching the indicated concentrations. Plates were incubated at 37 degrees for 96h (ADCs) or 72h (compounds) whereafter a 1:10 dilution of Cell Titer Glow was used to measure relative cell numbers after 10 min of incubation at room temperature.

[2] = tested on: CAL51 cells; assay: Degradation assay evaluated by immunofluorescence staining, CAL51; assay type: cell-based, human; conditions: for Dmax / DC50: Homo sapiens, CAL-51, CAL51, 6 h
Description: One day prior to treatment with compounds, black 96 well plates were coated with fibronectin (0.2 μg/ml in PBS) for 45 min at room temperature and subsequently washed with PBS. CAL-51 or SKBR3 cells were seeded at 30K cells/well (1001) and incubated overnight at 37° C. whereafter compounds were added reaching indicated concentrations. 6 h after treatment the medium was removed, cells were washed with PBS and fixed with 10% formalin for 20 mins at room temperature. Following two PBS washes (150 μl), cells were permeabilized in 0.1% Triton X-100 in PBS for 8 mins at room temperature and subsequently washed again twice with PBS. Cells were blocked thereafter with 1% BSA in PBS for 45 mins. Primary antibody was diluted in blocking buffer and incubated with the cells overnight at 4° C. After three washes with PBS, cells were incubated with secondary antibody for 1 h at RT, washed and subsequently images were taken on an Operetta High-Content Imager.
For the determination of the DC50, a custom algorithm implemented in the PerkinElmer image analysis software Harmony-Acapella® was used.

| DC50 [2] [nM] | SMILES | IC50 [1] [µM] | Dmax [2] [%] | Dmax (%) CAL51 ([2]; CAL51, 6 h) |
| --- | --- | --- | --- | --- |
| – | CNCCOCCc1ccc(NC(=O)OCc2ccc3c(c2)CN(C2CCC(=O)NC2=O)C3=O)cc1Cl (stereo not drawn) [IG-4] | > 10 | 17.3 ± 0.107 | – |
| 1410 | CNCCOCCc1ccc(NC(=O)NCc2ccc3c(c2)CN(C2CCC(=O)NC2=O)C3=O)cc1C(C)C (stereo not drawn) [IG-5] | 6.86 | 64.6 ± 2.56 | – |
| 834 ± 125 | CNCCOCCc1ccc(NC(=O)NCc2ccc3c(c2)CN(C2CCC(=O)NC2=O)C3=O)cc1SC (stereo not drawn) [IG-6, 1-((2-(2,6-dioxopiperidin-3-yl)-1-oxoisoindolin-5-yl)methyl)-3-(4-(2-(2-(methylamino)ethoxy)ethyl)-3-(methylthio)phenyl)urea] | 7.51 | 73.3 ± 9.98 | – |
| 157 ± 46.5 | O=C1CCC(N2C(=O)c3ccc(NS(=O)(=O)c4ccccc4OC(F)(F)F)cc3C2=O)C(=O)N1 (stereo not drawn) [IG-9, N-(2-(2,6-dioxopiperidin-3-yl)-1,3-dioxoisoindolin-5-yl)-2-(trifluoromethoxy)benzenesulfonamide] | 6.49 | 83.8 ± 5.5 | – |
| – | Cc1ccc(NC(=O)CCc2ccc3c(c2)CN(C2CCC(=O)NC2=O)C3=O)cc1O (stereo not drawn) [IG-10, 3-(2-(2,6-dioxopiperidin-3-yl)-1-oxoisoindolin-5-yl)-N-(3-hydroxy-4-methylphenyl)propanamide] | > 10 | 25.1 ± 3.27 | – |
| – | O=C1CCC(N2Cc3cc(NS(=O)(=O)c4ccccc4OC(F)(F)F)ccc3C2=O)C(=O)N1 (stereo not drawn) [IG-11, N-(2-(2,6-dioxopiperidin-3-yl)-1-oxoisoindolin-5-yl)-2-(trifluoromethoxy) benzenesulfonamide] | > 10 | 42 ± 9.54 | – |
| – | Cc1ccc(NC(=O)OCc2ccc3c(c2)CN(C2CCC(=O)NC2=O)C3=O)cc1O (stereo not drawn) [IG-13, (2-(2,6-dioxopiperidin-3-yl)-1-oxoisoindolin-5-yl)methyl (3-hydroxy-4-methylphenyl)carbamate] | 3.04 | 38.8 ± 1.98 | – |
| – | CNCCOCCc1ccc(NC(=O)NCc2ccc3c(c2)CN(C2CCC(=O)NC2=O)C3=O)cc1O (stereo not drawn) [IG-14, 1-((2-(2,6-dioxopiperidin-3-yl)-1-oxoisoindolin-5-yl)methyl)-3-(3-hydroxy-4-(2-(2-(methylamino)ethoxy)ethyl)phenyl)urea] | > 10 | 22.7 ± 3.34 | – |
| 174 ± 106 | Cc1ccc(NC(=O)NCc2ccc3c(c2)C(=O)N(C2CCC(=O)NC2=O)C3)cc1Cl (stereo not drawn) [IG-16, 1-(3-chloro-4-methylphenyl)-3-((2-(2,6-dioxopiperidin-3-yl)-3-oxoisoindolin-5-yl)methyl)urea] | 0.444 | 91.7 ± 5.22 | – |
| – | O=C1CCC(N2Cc3c(Nc4ccnc(Cc5ccc6c(c5)CCC6)n4)cccc3C2=O)C(=O)N1 (stereo not drawn) [IG-19, 3-(4-((2-((2,3-dihydro-1H-inden-5-yl)methyl)pyrimidin-4-yl)amino)-1-oxoisoindolin-2-yl)piperidine-2,6-dione] | > 10 | – | Not active |
| – | Cc1ccc(NC(=O)NCc2cc(O)c3c(c2)CN(C2CCC(=O)NC2=O)C3=O)cc1Cl (stereo not drawn) [IG-24, 1-(3-chloro-4-methylphenyl)-3-((2-(2,6-dioxopiperidin-3-yl)-7-hydroxy-1-oxoisoindolin-5-yl)methyl)urea] | 0.412 | – | – |
| – | Cc1ccc(NC(=O)NCc2ccc3c(c2O)CN(C2CCC(=O)NC2=O)C3=O)cc1O (stereo not drawn) [IG-27, 1-((2-(2,6-dioxopiperidin-3-yl)-4-hydroxy-1-oxoisoindolin-5-yl)methyl)-3-(3-hydroxy-4-methylphenyl)urea] | > 10 | – | – |
| – | Nc1ccc2c(c1OS(=O)(=O)c1ccccc1OC(F)(F)F)C(=O)N(C1CCC(=O)NC1=O)C2=O (stereo not drawn) [IG-29, 5-amino-2-(2,6-dioxopiperidin-3-yl)-1,3-dioxoisoindolin-4-yl 2-(trifluoromethoxy)benzenesulfonate] | > 10 | – | – |
| – | Nc1ccc(OS(=O)(=O)c2ccccc2OC(F)(F)F)c2c1C(=O)N(C1CCC(=O)NC1=O)C2=O (stereo not drawn) [IG-30, 7-amino-2-(2,6-dioxopiperidin-3-yl)-1,3-dioxoisoindolin-4-yl 2-(trifluoromethoxy)benzenesulfonate] | > 10 | – | – |
| – | O=C1CCC(N2Cc3cc(CNC(=O)Nc4ccc(CCOCCN5CCOCC5)c(O)c4)ccc3C2=O)C(=O)N1 (stereo not drawn) [IG-32, 1-((2-(2,6-dioxopiperidin-3-yl)-1-oxoisoindolin-5-yl)methyl)-3-(3-hydroxy-4-(2-(2-morpholinoethoxy)ethyl)phenyl)urea] | > 10 | – | – |
| – | Cc1ccc(NC(=O)OCc2ccc3c(c2O)CN(C2CCC(=O)NC2=O)C3=O)cc1Cl (stereo not drawn) [IG-33, (2-(2,6-dioxopiperidin-3-yl)-4-hydroxy-1-oxoisoindolin-5-yl)methyl (3-chloro-4-methylphenyl)carbamate] | > 10 | – | – |
| – | O=C1CCC(N2C(=O)c3cc(NS(=O)(=O)c4ccccc4OC(F)(F)F)cc(O)c3C2=O)C(=O)N1 (stereo not drawn) [IG-34, N-(2-(2,6-dioxopiperidin-3-yl)-7-hydroxy-1,3-dioxoisoindolin-5-yl)-2-(trifluoromethoxy)benzenesulfonamide] | > 10 | – | – |
| – | Cc1ccc(NC(=O)NCc2ccc3nnn(C4CCC(=O)NC4=O)c(=O)c3c2)cc1O (stereo not drawn) [IG-35, 1-((3-(2,6-dioxopiperidin-3-yl)-4-oxo-3,4-dihydrobenzo[d][1,2,3]triazin-6-yl)methyl)-3-(3-hydroxy-4-methylphenyl)urea] | > 10 | – | – |
| – | O=C1CCC(N2Cc3c(ccc(CNC(=O)Nc4cccc(S(F)(F)(F)(F)F)c4)c3O)C2=O)C(=O)N1 (stereo not drawn) [IG-43, 1-((2-(2,6-dioxopiperidin-3-yl)-4-hydroxy-1-oxoisoindolin-5-yl)methyl)-3-(3-(pentafluoro-l6-sulfaneyl)phenyl)urea] | 0.472 | – | – |
| – | O=C1CCC(N2Cc3c(Nc4ccnc(Nc5ccc6c(c5)CCC6)n4)ccc(O)c3C2=O)C(=O)N1 (stereo not drawn) [IG-44, 3-(4-((2-((2,3-dihydro-1H-inden-5-yl)amino)pyrimidin-4-yl)amino)-7-hydroxy-1-oxoisoindolin-2-yl)piperidine-2,6-dione] | > 10 | – | – |
| – | CNc1cc2c(cc1CNC(=O)Nc1ccc(C)c(Cl)c1)CN(C1CCC(=O)NC1=O)C2=O (stereo not drawn) [IG-45, 1-(3-chloro-4-methylphenyl)-3-((2-(2,6-dioxopiperidin-3-yl)-6-(methylamino)-1-oxoisoindolin-5-yl)methyl)urea] | > 10 | – | – |
| – | O=C1CCC(N2C(=O)c3cc(O)c(NS(=O)(=O)c4ccccc4OC(F)(F)F)cc3C2=O)C(=O)N1 (stereo not drawn) [IG-46, N-(2-(2,6-dioxopiperidin-3-yl)-6-hydroxy-1,3-dioxoisoindolin-5-yl)-2-(trifluoromethoxy)benzenesulfonamide] | > 10 | – | – |
| – | O=C1CCC(N2Cc3c(ccc(CNC(=O)Nc4ccc(Br)c(Br)c4)c3O)C2=O)C(=O)N1 (stereo not drawn) [IG-47, 1-(3,4-dibromophenyl)-3-((2-(2,6-dioxopiperidin-3-yl)-4-hydroxy-1-oxoisoindolin-5-yl)methyl)urea] | 1.08 | – | – |
| – | CC(C)(C)c1ccc(NC(=O)NCc2ccc3c(c2O)CN(C2CCC(=O)NC2=O)C3=O)cc1Cl (stereo not drawn) [IG-48, 1-(4-(tert-butyl)-3-chlorophenyl)-3-((2-(2,6-dioxopiperidin-3-yl)-4-hydroxy-1-oxoisoindolin-5-yl)methyl)urea] | 0.05 | – | – |
| – | CNCCOCCc1ccc(NC(=O)NCc2ccc3c(c2O)CN(C2CCC(=O)NC2=O)C3=O)cc1Cl (stereo not drawn) [IG-53, 1-(3-chloro-4-(2-(2-(methylamino)ethoxy)ethyl)phenyl)-3-((2-(2,6-dioxopiperidin-3-yl)-4-hydroxy-1-oxoisoindolin-5-yl)methyl)urea] | > 30 | – | – |

From US20260335453A1, “ISOINDOLINONE-GLUTARIMIDE ANTIBODY CONJUGATES, AND USES THEREOF” (FIREFLY BIO, INC., priority 2023, published 2026)
